Laboratory results: ChEMBL document CHEMBL4392858, “Synthesis and biological evaluation of novel imidazole nucleosides as potential anti-dengue virus agents” (Bioorg Med Chem, 2019)

Tests used:
dengue virus type 1 = assay: Antiviral activity against Dengue virus 1 DGL2 replicon infected in BHK cells assessed as inhibition of viral replicon RNA replication incubated for 72 hrs by Gaussia-luciferase reporter gene assay; assay type: functional, organism-based
[1] = Cytotoxicity in BHK cells assessed as reduction in cell viability incubated for 72 hrs by cell count reagent SF based microplate spectrophotometry; settings: cricetinae
[2] = Selectivity index, ratio of CC50 for cytotoxicity in BHK cells to IC50 for antiviral activity against Dengue virus 1 DGL2 replicon infected in BHK cells; assay type: toxicity, cell-based; settings: hamster, read-out: Ratio CC50/IC50

| SMILES | IC50 (dengue virus type 1) [µM] | CC50 at 72 h [1] [µM] | selectivity ratio [2] |
| --- | --- | --- | --- |
| C#Cc1c(C#N)ncn1[C@@H]1[Se][C@H](CO)[C@@H](O)[C@H]1O | 22.3 | > 50 | > 2.24 |
| C#Cc1c(C#N)ncn1[C@@H]1S[C@H](CO)[C@@H](O)[C@H]1O | 6.57 | > 50 | > 7.61 |
| C#Cc1c(C#N)ncn1[C@@H]1O[C@H](CO)[C@@H](O)[C@H]1O | 0.55 | 3.99 | 7.25 |
| NC(=O)c1ncn([C@@H]2O[C@H](CO)[C@@H](O)[C@H]2O)n1 [RIBAVIRIN] | 6.66 | 49 | 7.35 |
| C#Cc1c(C(N)=O)ncn1[C@@H]1[Se][C@H](CO)[C@@H](O)[C@H]1O | > 20 | > 50 |  |
| C#Cc1c(C(N)=O)ncn1[C@@H]1O[C@H](CO)[C@@H](O)[C@H]1O | 0.27 | 1.24 | 4.59 |
| C#Cc1c(C(N)=O)ncn1[C@@H]1S[C@H](CO)[C@@H](O)[C@H]1O | 14.6 | > 50 | > 3.42 |
